Measured values reported in PubChem BioAssay (NCI).
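Method: 48-hour compound exposure of cells in 96-well plates, five concentrations, linear interpolation of endpoints. GI50 = concentration required for 50% inhibition of growth. TGI is the concentration that stops growth completely.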

Experiments:
Test in all cases: inhibition of tumour cell growth, NCI panel, 48 h
SN12C renal = tested on: SN12C renal
OVCAR-8 ovarian = tested on: OVCAR-8 ovarian
SK-MEL-5 melanoma = tested on: SK-MEL-5 melanoma
UACC-62 melanoma = tested on: UACC-62 melanoma
ACHN renal = tested on: ACHN renal
NCI-H460 lung = tested on: NCI-H460 lung
SK-OV-3 ovarian = tested on: SK-OV-3 ovarian
SNB-75 CNS = tested on: SNB-75 CNS
NCI-H522 lung = tested on: NCI-H522 lung
MCF7 breast = tested on: MCF7 breast

SMILES	TGI (SN12C renal) [µM]	TGI (OVCAR-8 ovarian) [µM]	TGI (SK-MEL-5 melanoma) [µM]	TGI (UACC-62 melanoma) [µM]	TGI (ACHN renal) [µM]	TGI (NCI-H460 lung) [µM]	TGI (SK-OV-3 ovarian) [µM]	TGI (SNB-75 CNS) [µM]	TGI (NCI-H522 lung) [µM]	GI50 (SN12C renal) [µM]	GI50 (NCI-H522 lung) [µM]	GI50 (SK-MEL-5 melanoma) [µM]	GI50 (MCF7 breast) [µM]	TGI (MCF7 breast) [µM]	GI50 (UACC-62 melanoma) [µM]	GI50 (ACHN renal) [µM]	GI50 (NCI-H460 lung) [µM]	GI50 (SK-OV-3 ovarian) [µM]	GI50 (OVCAR-8 ovarian) [µM]	GI50 (SNB-75 CNS) [µM]
CC1(C)CC2CC(CC(C)(C)C2=O)C1=O	> 100	> 100	> 100	> 100	> 100	> 100	> 100	> 100												
NC(=O)NC12CC3CC(CC(F)(C3)C1)C2		> 100		> 100	> 100	> 100	> 100	> 100	> 100											
CCOc1ccc(NC(=O)C(=O)C(C(=O)c2ccc3ccccc3c2)C2OC(=O)c3ccccc32)cc1 (stereo not drawn)	44	> 100	31.9	27.2	> 100	> 100	> 100	64.9	31.6											
COc1cc2c(cc1OC)[C@@H](Nc1ccc(F)cc1)C1COC(=O)[C@@H]1C2c1cc(OC)c(O)c(OC)c1 (stereo partly drawn)	13.7	> 38.8	23.2	19.9	2.49	2.16	7	> 48	18.9											
CNC(=O)OCc1c2ccncc2c(C)c2c1[nH]c1ccc(OC)cc12	> 100	> 100		0.454	0.563	1.3	0.866		1.13											
O=S(=O)(/C=C/CS(=O)(=O)c1ccccc1)c1ccccc1	88	32.5	> 100	52.2	> 100	63.9	87	> 100												
CCCN(CCC)C(=O)C(=O)c1c(N)[nH]n(-c2ccccc2)c1=O	> 100	> 100	> 100	> 100	> 100	> 100	> 100		> 100											
COc1cccc(NC(=O)CC(=O)N2N=C(N3c4ccccc4Sc4ccccc43)CC2c2ccccc2)c1 (stereo not drawn)	> 100	> 100	> 100	> 100	> 100	> 100	> 100	> 100												
COC1=C(C)C(=O)c2c(cc3c(c2O)C(C)(CCC=C(C)C)C(C)O3)C1=O (stereo not drawn)	> 61.8	> 100	27.4	97	> 100	27.2	> 100	37.1	> 100											
O=C(O)c1nc(-c2ccc(Cl)c(Cl)c2)nc2ccc(Cl)cc12	> 100	> 100	> 100	> 100	> 100	> 100	43.3	35.4												
COc1ccc2nc3cc(Cl)ccc3c(SCC(=O)Nc3ccccc3-c3ccccc3NC(=O)CSc3c4ccc(Cl)cc4nc4ccc(OC)cc34)c2c1	> 100	> 100	> 100	> 100	> 100	> 100	> 100	> 100	> 100											
COc1ccc(CC2(Cc3ccc(OC)cc3)CCOC2=O)cc1	> 100	> 100		> 100	> 100	> 100	> 100	48.9	> 100											
Cn1cc(-c2csc(-c3cn(CCCN4CCCCC4)c4ccccc34)n2)c2cccnc21	3.31		3.26	3.46	3.01	4	42.7		41	1.79	17.8	1.82	1.65	3.29	1.87	1.63	2.04	19.3		
C[CH2][Sn]([CH2]C)([O]C(=O)c1ccccc1F)[O][Sn]([CH2]C)([CH2]C)[O]C(=O)c1ccccc1F	> 57.4	> 100	> 70.3	35.1	33	> 100	> 90.3	> 57.8	2.61	27	1.24	41.2			18.1	18.7	> 54	> 50.5	> 62	25.1
C[C@]12CCC(=O)CC1CCCC2=O (stereo partly drawn)	> 100	> 100	> 100	> 100		> 100	> 100	> 100	> 100											
CCOC(=O)/C(O)=C(/C(=O)OC)c1ccc(Cl)cc1	> 100	> 100	> 100	> 100	> 100	> 100	> 100	> 100												
C=C1CC[C@@H]2[C@](C)(COC(C)=O)[C@H](OC(C)=O)CC[C@@]2(C)[C@@H]1CC(Nc1ccc(S(=O)(=O)Nc2ccc(Cl)nn2)cc1)C1=CCOC1=O (stereo partly drawn)	3.66		3.13	3.86	3.32	4.31	12.3	5.9	2.1	1.25	0.754	1.6			1.49	1.68	2.03	4.05		1.44
CCOC(=O)C1CCCCN1C(=O)c1ccc(Nc2cnc3cc(C(F)(F)F)ccc3n2)cc1 (stereo not drawn)	31.5	> 100	25.1	27.7	43.4	30.4			> 100	16.2	30.4	12.4	10.2	25.1	14.2	15.4	13.3		33.2	
COC(=O)C(CC1=C(O)Nc2ccccc2N1)/C(=N/NC(N)=O)C(=O)Nc1ccccc1C (stereo not drawn)	> 100	> 100	> 100	> 100	> 100	> 100	> 100	> 100	33.9											
CCN(CC)c1oc(N(CC)CC)c(C(=O)Nc2ccccn2)c(=O)c1C(C)=O	> 100	> 100	> 100	> 100	> 100	> 100	> 100	> 100	> 100											
CN(C)C(=O)c1ccc([N+](=O)[O-])cc1	> 100	> 100	> 100	> 100	> 100	> 100	> 100	> 100	> 100											
Oc1c(Cl)c(Cl)c(O)c2c1CCCC2	30.2	46	25.7	27	3.27	31.9	27.2							4.56						
O=C(O)C(CS)NCc1c2ccccc2nc2ccccc12 (stereo not drawn)	> 100	> 100			> 100	> 100	> 100	> 100	88											
CC(=O)O[C@H]1CCC2[C@@H]3CCC4c5nonc5CC[C@]4(C)C3CC[C@@]21C (stereo partly drawn)	> 10	> 10	> 10	> 100	> 100	> 10	> 10	> 100	> 10						> 100	> 10				> 10
O=C(N/C(=C\c1ccc(/C=C(\NC(=O)c2ccccc2)c2nc3ccccc3[nH]2)cc1)c1nc2ccccc2[nH]1)c1ccccc1	> 100	> 100	> 100	> 100	> 100	> 100	> 100	> 100	> 100											
CC(=O)[CH-]C(=O)c1ccccc1.CC(=O)[CH-]C(=O)c1ccccc1.CC(=O)[CH-]C(=O)c1ccccc1.[In+3]	> 100	> 100		> 100	> 100	> 100	70.9	> 100	59.8	21.2	21.8				32.9	35	16.6	29.2	24.9	19.8
O=C1/C(=N\O)S(=O)(=O)c2ccccc21	> 100	> 100	> 100	> 100	> 100	> 100	> 100	> 100	> 100											
CCc1cccc(C)c1NC(=O)C1=C(C)NC(C)=C(C(=O)Nc2c(C)cccc2CC)C1c1ccc2c(c1)OCO2	42.6	> 100	31.9		29.6	45.5	92.5	91.9	30.1											
CCc1ccccc1NC(=O)/C(N=O)=C(/C)O	> 100	> 100	> 100	> 100	> 100	> 100	> 100	> 100	> 100											
O=C(NC(=Nc1ccccc1)SCCSC(=Nc1ccccc1)NC(=O)c1cccs1)c1cccs1	> 100	> 100	74	> 100	> 100	> 100		99.8	63.6											
